Data: patent US20150197497A1, “SELECTIVE INHIBITORS OF HISTONE DEACETYLASE ISOFORM 6 AND METHODS THEREOF” (DANA-FARBER CANCER INSTITUTE, INC., priority 2011, published 2015)

Assays:
HDAC4 = target: T1, HDAC4 (Homo sapiens, UniProt P56524); test: In vitro HDAC enzyme inhibition assay, HDAC4; assay type: biochemical; details: for HDAC4/HDAC6 in vitro selectivity: ratio of IC50 for HDAC4 relative to that of HDAC6; for IC50: recombinant full-length HDAC4, substrate MAZ1675 10 μM
T1 construct: Recombinant, full-length HDAC protein (BPS Biosciences) was incubated with fluorophore conjugated substrate; purchased BPS Biosciences
T1 sequence (P56524 whole entry): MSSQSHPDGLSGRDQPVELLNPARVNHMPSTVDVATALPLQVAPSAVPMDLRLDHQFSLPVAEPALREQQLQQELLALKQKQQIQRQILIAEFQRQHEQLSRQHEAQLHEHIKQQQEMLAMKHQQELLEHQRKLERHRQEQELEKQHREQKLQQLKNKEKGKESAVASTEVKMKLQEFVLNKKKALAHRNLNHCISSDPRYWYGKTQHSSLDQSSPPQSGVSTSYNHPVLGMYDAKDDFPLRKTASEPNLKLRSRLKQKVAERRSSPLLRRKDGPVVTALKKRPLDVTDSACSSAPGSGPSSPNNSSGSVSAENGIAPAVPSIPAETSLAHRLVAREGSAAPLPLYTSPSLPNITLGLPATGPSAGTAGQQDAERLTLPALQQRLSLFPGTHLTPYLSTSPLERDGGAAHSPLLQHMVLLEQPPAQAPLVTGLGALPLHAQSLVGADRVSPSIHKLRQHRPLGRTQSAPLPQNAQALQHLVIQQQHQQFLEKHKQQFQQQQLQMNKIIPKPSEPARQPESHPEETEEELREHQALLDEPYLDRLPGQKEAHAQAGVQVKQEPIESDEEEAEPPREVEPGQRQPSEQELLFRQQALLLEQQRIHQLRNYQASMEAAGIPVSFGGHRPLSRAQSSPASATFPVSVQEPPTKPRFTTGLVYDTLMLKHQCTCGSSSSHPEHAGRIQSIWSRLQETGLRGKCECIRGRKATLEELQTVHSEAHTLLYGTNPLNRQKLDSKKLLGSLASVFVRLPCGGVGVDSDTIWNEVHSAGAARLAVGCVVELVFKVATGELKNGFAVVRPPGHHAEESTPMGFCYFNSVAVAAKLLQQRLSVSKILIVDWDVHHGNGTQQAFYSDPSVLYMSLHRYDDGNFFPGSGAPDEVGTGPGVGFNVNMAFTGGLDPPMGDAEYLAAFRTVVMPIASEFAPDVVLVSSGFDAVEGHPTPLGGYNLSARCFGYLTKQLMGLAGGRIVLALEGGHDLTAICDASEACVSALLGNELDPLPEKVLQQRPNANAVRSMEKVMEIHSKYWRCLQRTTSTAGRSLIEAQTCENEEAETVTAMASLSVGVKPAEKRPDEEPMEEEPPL
Protocol: (§1) In vitro Histone Deacetylase enzyme assays were performed using Class I (isoforms: HDAC1, HDAC2, HDAC3 and HDAC8), class IIa (isoforms: HDAC4, HDAC5, HDAC7 and HDAC9) and class IIb (isoform HDAC6).
(§2) HDAC activities were determined in vitro with an optimized homogenous assay performed in a 384-well plate. Recombinant, full-length HDAC protein (BPS Biosciences) was incubated with fluorophore conjugated substrate, MAZ1600 and MAZ1675, at Km=[S]. […] Reactions were performed in assay buffer (50 mM HEPES, 100 mM KCl, 0.001% Tween-20, 0.05% BSA, 200 μM tris(2-carboxyethyl)phosphine (TCEP), pH 7.4) and followed for fluorogenic release of 7-amino-4-methylcoumarin from substrate upon deacetylase and trypsin enzymatic activity. Fluorescence measurements were obtained every five minutes using a multilabel plate reader and plate-stacker (Envision; Perkin-Elmer). Each plate was analyzed by plate repeat, and the first derivative within the linear range was imported into analytical software (Spotfire DecisionSite and GraphPad Prism). Replicate experimental data from incubations with inhibitor were normalized to controls.

acetylated histones = test: High-content image analysis of induction of acetylated histones in A549 cells; details: for levels of acetylated histone, dose response (in words): A549 cells, FIG. 11; for EC50: Homo sapiens, A549, 8 h, read-out: EC50 for half-maximal induction of acetylated histones (AcHistone)
Protocol: Cells were treated with each test HDACi compound with an automated pin transfer instrument (Janus, Perkin Elmer) and incubated for 8 hours. […] Fixation solution was aspirated and 90 μL of washing solution (0.1% Triton X-100 in PBS) was added prior to 10 minute incubation at 4° C. Washing solution was aspirated and cells were incubated at 4° C. for about 1 hour in blocking solution (0.1% Triton X-100+2% BSA in PBS). Washing solution was aspirated, and cells were incubated for about 1 hour at 4° C. in primary antibody for acetylated-tubulin (Sigma T7451) and acetylated-histone (Cell Signaling #9441L) at a 1:1000 dilution in blocking solution. Primary antibody solution was aspirated, and cells were washed three times in 90 μL of washing solution. […] Secondary antibody and nuclear staining solution was aspirated and cells were washed three times in 90 μL of washing solution. After the third wash, 50 μL of PBS was added to each well. Image acquisition was done on a high content imaging microscope (ImageXpress Micro, Molecular Devices), and image analysis (MetaXpress, Molecular Devices) was performed to obtain average acetylated-tubulin and acetylated-histone signal per cell based on treatment. Replicate experimental data from incubations with inhibitor were normalized to DMSO controls.

HDAC6 = target: T2, HDAC6 (Homo sapiens, UniProt Q9UBN7); test: In vitro HDAC enzyme inhibition assay, HDAC6; assay type: biochemical; details: recombinant full-length HDAC6, substrate MAZ1600 9 μM
T2 construct: Recombinant, full-length HDAC protein (BPS Biosciences) was incubated with fluorophore conjugated substrate; purchased BPS Biosciences
T2 sequence (Q9UBN7 1-1215): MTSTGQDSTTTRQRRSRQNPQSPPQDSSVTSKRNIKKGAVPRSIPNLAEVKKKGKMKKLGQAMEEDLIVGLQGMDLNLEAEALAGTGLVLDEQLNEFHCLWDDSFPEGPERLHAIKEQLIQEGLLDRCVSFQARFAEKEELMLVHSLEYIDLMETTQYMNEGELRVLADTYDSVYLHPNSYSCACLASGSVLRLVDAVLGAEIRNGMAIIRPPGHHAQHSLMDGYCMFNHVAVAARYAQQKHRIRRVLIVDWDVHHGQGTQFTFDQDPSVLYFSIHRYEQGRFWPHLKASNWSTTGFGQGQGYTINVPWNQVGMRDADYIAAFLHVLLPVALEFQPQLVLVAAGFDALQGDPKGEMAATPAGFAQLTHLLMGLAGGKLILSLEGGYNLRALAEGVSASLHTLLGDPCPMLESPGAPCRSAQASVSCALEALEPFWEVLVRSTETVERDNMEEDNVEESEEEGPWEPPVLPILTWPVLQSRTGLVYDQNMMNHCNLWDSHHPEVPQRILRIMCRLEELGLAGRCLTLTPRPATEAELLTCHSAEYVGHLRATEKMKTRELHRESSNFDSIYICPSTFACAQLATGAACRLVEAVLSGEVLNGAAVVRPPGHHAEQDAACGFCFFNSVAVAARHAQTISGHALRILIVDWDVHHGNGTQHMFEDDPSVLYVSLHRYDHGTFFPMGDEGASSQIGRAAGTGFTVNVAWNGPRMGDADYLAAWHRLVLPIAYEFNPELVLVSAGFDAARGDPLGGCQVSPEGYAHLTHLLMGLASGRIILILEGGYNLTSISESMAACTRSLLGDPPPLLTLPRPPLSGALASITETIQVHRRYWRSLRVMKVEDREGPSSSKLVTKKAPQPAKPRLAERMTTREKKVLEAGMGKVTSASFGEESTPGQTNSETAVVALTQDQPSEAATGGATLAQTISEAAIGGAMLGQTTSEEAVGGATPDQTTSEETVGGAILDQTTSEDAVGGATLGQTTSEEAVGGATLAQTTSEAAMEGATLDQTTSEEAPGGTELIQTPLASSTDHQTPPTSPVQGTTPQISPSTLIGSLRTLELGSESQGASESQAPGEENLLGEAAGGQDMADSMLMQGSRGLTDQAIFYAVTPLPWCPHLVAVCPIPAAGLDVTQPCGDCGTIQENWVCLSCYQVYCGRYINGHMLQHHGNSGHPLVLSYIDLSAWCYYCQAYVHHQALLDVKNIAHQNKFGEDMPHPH
Protocol: as §1, §2

HDAC7 = target: T3, HDAC7 (Homo sapiens, UniProt Q8WUI4); test: In vitro HDAC enzyme inhibition assay, HDAC7; assay type: biochemical; details: for HDAC7/HDAC6 in vitro selectivity: ratio of IC50 for HDAC7 relative to that of HDAC6; for IC50: recombinant full-length HDAC7, substrate MAZ1675 22 μM
T3 construct: Recombinant, full-length HDAC protein (BPS Biosciences) was incubated with fluorophore conjugated substrate; purchased BPS Biosciences
T3 sequence (Q8WUI4 1-952): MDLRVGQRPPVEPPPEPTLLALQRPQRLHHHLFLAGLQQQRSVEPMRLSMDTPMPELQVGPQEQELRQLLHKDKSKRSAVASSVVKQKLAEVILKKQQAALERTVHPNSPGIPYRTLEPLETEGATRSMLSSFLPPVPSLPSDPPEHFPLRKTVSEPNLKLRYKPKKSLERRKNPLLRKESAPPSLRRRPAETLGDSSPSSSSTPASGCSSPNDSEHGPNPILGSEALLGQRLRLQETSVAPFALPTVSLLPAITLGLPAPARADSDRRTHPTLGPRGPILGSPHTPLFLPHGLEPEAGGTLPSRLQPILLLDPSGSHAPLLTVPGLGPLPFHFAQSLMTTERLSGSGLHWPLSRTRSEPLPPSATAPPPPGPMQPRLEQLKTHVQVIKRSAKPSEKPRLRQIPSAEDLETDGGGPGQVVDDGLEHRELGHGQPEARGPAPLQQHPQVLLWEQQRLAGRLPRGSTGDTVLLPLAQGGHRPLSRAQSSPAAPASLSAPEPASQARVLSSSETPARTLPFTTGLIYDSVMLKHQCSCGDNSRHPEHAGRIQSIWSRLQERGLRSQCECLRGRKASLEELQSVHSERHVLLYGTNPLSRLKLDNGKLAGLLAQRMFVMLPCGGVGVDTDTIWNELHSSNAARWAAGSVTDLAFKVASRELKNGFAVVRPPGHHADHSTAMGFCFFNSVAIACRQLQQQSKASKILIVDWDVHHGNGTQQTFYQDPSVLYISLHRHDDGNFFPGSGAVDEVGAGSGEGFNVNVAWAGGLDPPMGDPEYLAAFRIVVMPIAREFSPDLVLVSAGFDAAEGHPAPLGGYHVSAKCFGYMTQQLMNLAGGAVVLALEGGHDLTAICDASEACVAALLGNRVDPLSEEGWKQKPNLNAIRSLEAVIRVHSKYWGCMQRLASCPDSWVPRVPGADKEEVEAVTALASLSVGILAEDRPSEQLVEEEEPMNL
Protocol: as §1, §2

HDAC2 = target: T4, HDAC2 (Homo sapiens, UniProt Q92769); test: In vitro HDAC enzyme inhibition assay, HDAC2; assay type: biochemical; details: for HDAC2/HDAC6 in vitro selectivity: ratio of IC50 for HDAC2 relative to that of HDAC6; for IC50: recombinant full-length HDAC2, substrate MAZ1600 22 μM
T4 construct: Recombinant, full-length HDAC protein (BPS Biosciences) was incubated with fluorophore conjugated substrate; purchased BPS Biosciences
T4 sequence (Q92769 whole entry): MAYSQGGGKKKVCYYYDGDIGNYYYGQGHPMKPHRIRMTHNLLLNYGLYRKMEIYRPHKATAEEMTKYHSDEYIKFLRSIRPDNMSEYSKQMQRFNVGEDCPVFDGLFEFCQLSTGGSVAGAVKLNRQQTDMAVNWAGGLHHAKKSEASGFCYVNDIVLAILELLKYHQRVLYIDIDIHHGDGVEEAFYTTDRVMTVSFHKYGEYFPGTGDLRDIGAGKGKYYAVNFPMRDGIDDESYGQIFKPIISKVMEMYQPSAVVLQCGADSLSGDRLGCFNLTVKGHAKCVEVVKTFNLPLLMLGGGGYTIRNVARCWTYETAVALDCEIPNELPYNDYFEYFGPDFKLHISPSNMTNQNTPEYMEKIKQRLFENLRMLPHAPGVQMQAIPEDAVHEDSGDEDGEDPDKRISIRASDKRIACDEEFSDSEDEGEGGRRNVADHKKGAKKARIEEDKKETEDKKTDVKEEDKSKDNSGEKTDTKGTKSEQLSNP
Protocol: as §1, §2

| SMILES | HDAC4/HDAC6 in vitro selectivity (HDAC4) | IC50 (HDAC4) [nM] | EC50 (acetylated histones) [nM] | IC50 (HDAC6) [nM] | HDAC7/HDAC6 in vitro selectivity (HDAC7) | IC50 (HDAC7) [nM] | HDAC2/HDAC6 in vitro selectivity (HDAC2) | IC50 (HDAC2) [nM] | levels of acetylated histone, dose response (in words) (acetylated histones) | selectivity toward HDAC6 compared to HDAC4 (in words) (HDAC4; tested in vitro) |
| --- | --- | --- | --- | --- | --- | --- | --- | --- | --- | --- |
| O=C(NO)c1ccc(Cn2c(C(F)(F)F)nc3ccccc32)cc1 [A1, N-hydroxy-4-((2-(trifluoromethyl)-1H-benzo[d]imidazol-1-yl)methyl)benzamide] | 2948 | 1390 | 6340 | 0.472 | 255 | 121 | 1230 | 581 | absence of the dose-dependent response |  |
| O=C(NO)c1ccc(Cn2cnc3ccccc32)cc1 [A7] | 17962 | 1760 | 232 | 0.0979 | 2606 | 255 | 1853 | 181 |  |  |
| Cc1ccc2c(c1)ncn2Cc1ccc(C(=O)NO)cc1 [A8, N-hydroxy-4-((5-methyl-1H-benzo[d]imidazol-1-yl)methyl)benzamide] | 7247 | 2760 | 79.5 | 0.381 | 1098 | 418 | 762 | 290 |  |  |
| O=C(NO)c1ccc(Cn2cnc3cc(F)ccc32)cc1 [A9, 4-((5-fluoro-1H-benzo[d]imidazol-1-yl)methyl)-N-hydroxybenzamide] | 28751 | 1910 | 62.7 | 0.0663 | 4925 | 327 | 3132 | 208 |  |  |
| O=C(NO)c1ccc(Cn2cnc3cc(Cl)ccc32)cc1 [A10, 4-((5-chloro-1H-benzo[d]imidazol-1-yl)methyl)-N-hydroxybenzamide] | 21516 | 1480 | 900 | 0.069 | 4029 | 278 | 1364 | 94.1 |  |  |
| O=C(NO)c1ccc(Cn2cnc3cc(Br)ccc32)cc1 [A11, 4-((5-bromo-1H-benzo[d]imidazol-1-yl)methyl)-N-hydroxybenzamide] | 93190 | 1550 | 1970 | 0.0167 | 4265 | 71.1 | 1601 | 26.7 |  | exceptionally high selectivity (Inhibitors with in vitro selectivity values for HDAC6 of at least 30,000 are considered to have exceptionally high selectivity toward HDAC6) |
| COc1ccc2c(c1)ncn2Cc1ccc(C(=O)NO)cc1 [A12, N-hydroxy-4-((5-methoxy-1H-benzo[d]imidazol-1-yl)methyl)benzamide] | 12423 | 2690 | 105 | 0.217 | 4070 | 883 | 1125 | 244 |  |  |

Further lines, with some results ahead:

| HDAC4/HDAC6 in vitro selectivity (HDAC4) | IC50 (HDAC4) [nM] | EC50 (acetylated histones) [nM] | IC50 (HDAC6) [nM] | HDAC7/HDAC6 in vitro selectivity (HDAC7) | IC50 (HDAC7) [nM] | HDAC2/HDAC6 in vitro selectivity (HDAC2) | IC50 (HDAC2) [nM] | SMILES | levels of acetylated histone, dose response (in words) (acetylated histones) | selectivity toward HDAC6 compared to HDAC4 (in words) (HDAC4; tested in vitro) |
| --- | --- | --- | --- | --- | --- | --- | --- | --- | --- | --- |
| 2775 | 848 | 242 | 0.306 | 348 | 106 | 553 | 169 | Cc1ccc2c(c1)nc(C(F)(F)F)n2Cc1ccc(C(=O)NO)cc1 [A2, N-hydroxy-4-((5-methyl-2-(trifluoromethyl)-1H-benzo[d]imidazol-1-yl)methyl)benzamide] |  |  |
| 1901 | 1090 | 592 | 0.574 | 484 | 278 | 844 | 484 | O=C(NO)c1ccc(Cn2c(C(F)(F)F)nc3cc(F)ccc32)cc1 [A3, 4-((5-fluoro-2-(trifluoromethyl)-1H-benzo[d]imidazol-1-yl)methyl)-N-hydroxybenzamide] |  |  |
| 1188 | 1380 | 14900 | 1.16 | 323 | 374 | 259 | 300 | O=C(NO)c1ccc(Cn2c(C(F)(F)F)nc3cc(Cl)ccc32)cc1 [A4, 4-((5-chloro-2-(trifluoromethyl)-1H-benzo[d]imidazol-1-yl)methyl)-N-hydroxybenzamide] | absence of the dose-dependent response |  |
| 2783 | 862 | 1930 | 0.31 | 735 | 228 | 471 | 146 | O=C(NO)c1ccc(Cn2c(C(F)(F)F)nc3cc(Br)ccc32)cc1 [A5, 4-((5-bromo-2-(trifluoromethyl)-1H-benzo[d]imidazol-l-yl)methyl)-N-hydroxybenzamide] |  |  |
| 2414 | 946 | 2590 | 0.392 | 1058 | 414 | 522 | 205 | COc1ccc2c(c1)nc(C(F)(F)F)n2Cc1ccc(C(=O)NO)cc1 [A6, N-hydroxy-4-((5-methoxy-2-(trifluoromethyl)-1H-benzo[d]imidazol-1-yl)methyl)benzamide] |  |  |
